Assay results taken from patent US20250236616A1, “IMMUNOMODULATING AZALIDES” (Zoetis Services LLC, priority 2021, published 2025).

Columns and labels:
Format in all cases: cell-based
[1] = system: IL-1β; test: Whole bovine blood assay, LPS-induced IL-1β (inhibition / overstimulation); settings: drug concentration giving overstimulation (OS) of LPS-induced IL-1β, top concentration 250 μM
Method: (§1) Whole Blood Assay-Fresh whole bovine blood samples were collected into heparinized vacutainer tubes. Assay plates were prepared with 25 μL of drug diluted in PBS at varying concentration in 96 round bottom wells, then 225 μL of blood was added and plates incubated at 37° C. for 4 hours. Cells were stimulated with LPS (or PBS for controls) by adding 25 μL to the plates at a final concentration of 1 μg/mL and incubated at 37° C. for 18 hours. To collect plasma, plates were centrifuged at 2,000×g for 10 minutes and 100 μL of supernatant was transferred to a 96 well polypropylene plate that was sealed and stored at −80° C. Samples were assayed for cytokines using the Meso Scale Discovery (MSD) platform (described below). This same MSD platform was used to assess cytokines in the plasma collected directly from drug treated animals.
(§2) Cytokine Detection—An MSD U-Plex cytokine assay was developed following the MSD U-Plex protocol guide and included biotinylated capture antibodies against: bovine Interleukin (IL)-1β (Biorad), bovine IL-6 (R&D Systems) and bovine tumor necrosis factor (TNF)-α (R&D Systems). The anti-IL-1β antibody was biotinylated using EZ-Link Sulfo-NHS-Biotin (Thermo Scientific) at a challenge ratio of 1:20 according to manufacturer instructions. Assay calibrators (Kingfisher) were diluted to a concentration of […] in control lithium heparin plasma, followed by 4-fold serial dilutions into plasma. The detection antibodies were sulfo-tagged following the MSD quick guide conjugation protocol using a challenge ratio of 1:20. Antibodies were used at the following concentrations: anti-IL-1β at 1 μg/mL, anti-IL-6 at 1 μg/mL and anti-TNF-α at 0.5 μg/mL. Cytokines were quantified according to manufacturer's instructions using a chemiluminescent readout. In brief, 0.5 mL of all biotinylated antibodies were diluted to 10 μg/mL with Diluent 100 and paired to their respective linkers by adding 750 μL of supplied Linker solution and incubated for 30 minutes followed by addition of Stop solution for another 30 minutes. The linked antibodies were then diluted 10-fold into Stop solution. Plates were coated by adding 50 μL of antibody solutions per well and incubated covered and shaking for 1 hour at room temperature. Plates were washed three times with PBS/Tween20 prior to samples or standards being added at 30 μL per well and incubated as above. Plates were washed three times before detection antibodies were added along with 2% goat and rabbit serum to block and incubated same as above. Plates were washed a further three times before addition of 150 μL 2X Read buffer and read immediately on the SI6000 instrument (MSD). For soluble protein levels, a BCA protein kit (Thermofisher) was used. The cytokine concentrations (pg/mL) were normalized to the total protein levels for each sample. [Bassel et. al., BMC Veterinary Research (2020) 16:168]
(§3) Therefore, a fresh whole bovine blood assay was developed with LPS as a stimulant (TLR-4 agonist) and with IL-1β and TNF-α as the read-out. Compounds of the invention were evaluated against a positive control for their ability to inhibit LPS-induced IL-1β and TNF-α as an overall evaluation of relative potency and modulation of target pathways.
For M9, the top dose of 500 μM was not high enough to determine an overstimulation of IL-1 B which was recorded as not applicable (n/a). The enhanced response indicates increased concentration of IL-1β cytokine at the drug concentration indicated. This is generally observed when compounds are out of range (high concentration) and stimulate a cellular toxicity signal. Further data supporting this hypothesis includes murine studies using a P. multocida infection in mice.
TNFα is a cell signaling protein, cytokine, that plays a key role in both acute and chronic inflammation. […]

[2] = system: TNF-α; test: Whole bovine blood assay, LPS-induced TNF-α; settings: fresh whole bovine blood, LPS stimulant, top drug concentration 250 μM
Method: as §1
as §2, with “The anti-IL-1β antibody was biotinylated using EZ-Link Sulfo-NHS-Biotin (Thermo Scientific) at a challenge ratio of 1:20 according to manufacturer instructions.” left out, “The detection antibodies were sulfo-tagged following the MSD quick guide conjugation protocol using a challenge ratio of 1:20.” left out
as §3
TNFα is a cell signaling protein, cytokine, that plays a key role in both acute and chronic inflammation. In the bovine whole blood in vitro screening assay the inhibition of TNFα as induced by stimulation by lipopolysaccharide (LPS) and as measured by half the maximal inhibitory concentration (IC50) is recognized as the primary biomarker of immunomodulation potency upon pretreatment with the compounds of the invention. IL-1 B is a mediator of the inflammation response and is involved in a number of cellular activities including proliferation, differentiation and apoptosis. IL-1ß is also released upon cellular stress or cytotoxicity or upon TLR stimulation. […] In order to estimate a therapeutic index from the in vitro assay a differential between the TNFα IC50 (immunomodulation potency) versus the perceived cellular toxicity concentration (IL-1β release or overstimulation) was utilized.

[3] = system: IL-6; test: Whole bovine blood assay, LPS-induced IL-6; settings: fresh whole bovine blood, LPS stimulant, top drug concentration 250 μM

IC50 [2]	IC50 [3]	Compound	minimal effective concentration [1]	further results
		CCCNC[C@]1(O)[C@H](C)O[C@@H](O[C@H]2[C@H](C)[C@@H](O[C@@H]3O[C@H](C)C[C@H](N(C)S(=O)(=O)N(C)c4ccc(C#N)cc4)[C@H]3O)[C@](C)(O)C[C@@H](C)CN[C@H](C)[C@@H](O)[C@](C)(O)[C@@H](CC)OC(=O)[C@@H]2C)C[C@@]1(C)OC [Example B-62]	3 µM	
		CCCNC[C@]1(O)[C@H](C)O[C@@H](O[C@H]2[C@H](C)[C@@H](O[C@@H]3O[C@H](C)C[C@H](N(C)S(=O)(=O)c4nccn4C)[C@H]3Oc3ccc(OC)cc3)[C@](C)(O)C[C@@H](C)CN[C@H](C)[C@@H](O)[C@](C)(O)[C@@H](CC)OC(=O)[C@@H]2C)C[C@@]1(C)OC [Example B-119]	6 µM	
		CCCNC[C@]1(O)[C@H](C)O[C@@H](O[C@H]2[C@H](C)[C@@H](O[C@@H]3O[C@H](C)C[C@H](N(C)S(N)(=O)=O)[C@H]3O)[C@](C)(O)C[C@@H](C)CN[C@H](C)[C@@H](O)[C@](C)(O)[C@@H](CC)OC(=O)[C@@H]2C)C[C@@]1(C)OC [Example B-140]	>250 µM	
		CCCNC[C@]1(O)[C@H](C)O[C@@H](O[C@H]2[C@H](C)[C@@H](O[C@@H]3O[C@H](C)C[C@H](N(C)S(=O)(=O)c4ccc(S(C)(=O)=O)cc4)[C@H]3O)[C@](C)(O)C[C@@H](C)CN[C@H](C)[C@@H](O)[C@](C)(O)[C@@H](CC)OC(=O)[C@@H]2C)C[C@@]1(C)OC [Example B-11]	>250 µM	
		CCCNC[C@]1(O)[C@H](C)O[C@@H](O[C@H]2[C@H](C)[C@@H](O[C@@H]3O[C@H](C)C[C@H](N(C)S(=O)(=O)c4ccccc4)[C@H]3Oc3ccc(Cl)cn3)[C@](C)(O)C[C@@H](C)CN[C@H](C)[C@@H](O)[C@](C)(O)[C@@H](CC)OC(=O)[C@@H]2C)C[C@@]1(C)OC [Example B-135]	6 µM	
		CCCNC[C@]1(O)[C@H](C)O[C@@H](O[C@H]2[C@H](C)[C@@H](O[C@@H]3O[C@H](C)C[C@H](N(C)S(=O)(=O)c4ccc(S(N)(=O)=O)cc4)[C@H]3O)[C@](C)(O)C[C@@H](C)CN[C@H](C)[C@@H](O)[C@](C)(O)[C@@H](CC)OC(=O)[C@@H]2C)C[C@@]1(C)OC [Example B-15]	>250 µM	
25 µM	25 µM	CC[C@H]1OC(=O)[C@H](C)[C@@H](O[C@H]2C[C@@](C)(OC)[C@](O)(CN3CCCCC3)[C@H](C)O2)[C@H](C)[C@@H](O[C@@H]2O[C@H](C)C[C@H](N(C)S(=O)(=O)Nc3ccc(Cl)c(Cl)c3)[C@H]2O)[C@](C)(O)C[C@@H](C)CN[C@H](C)[C@@H](O)[C@]1(C)O [Example C-28]		
8 µM	13 µM	CC[C@H]1OC(=O)[C@H](C)[C@@H](O[C@H]2C[C@@](C)(OC)[C@](O)(CNCc3cscn3)[C@H](C)O2)[C@H](C)[C@@H](O[C@@H]2O[C@H](C)C[C@H](N(C)S(=O)(=O)c3ccc(Cl)cc3)[C@H]2O)[C@](C)(O)C[C@@H](C)CN[C@H](C)[C@@H](O)[C@]1(C)O [Example B-37]		
4 µM	5 µM	CCCNC[C@]1(O)[C@H](C)O[C@@H](O[C@H]2[C@H](C)[C@@H](O[C@@H]3O[C@H](C)C[C@H](N(CC(C)C)S(=O)(=O)c4ccc(Cl)cc4)[C@H]3O)[C@](C)(O)C[C@@H](C)CN[C@H](C)[C@@H](O)[C@](C)(O)[C@@H](CC)OC(=O)[C@@H]2C)C[C@@]1(C)OC [Example B-150]		
		CCCNC[C@]1(O)[C@H](C)O[C@@H](O[C@H]2[C@H](C)[C@@H](O[C@@H]3O[C@H](C)C[C@H](N(CCC)S(=O)(=O)c4ccc(Cl)cc4)[C@H]3O)[C@](C)(O)C[C@@H](C)CN[C@H](C)[C@@H](O)[C@](C)(O)[C@@H](CC)OC(=O)[C@@H]2C)C[C@@]1(C)OC [Example B-142]		IC50 ([2]; Bos taurus): 8 µM; IC50 ([3]; Bos taurus): 9 µM
5 µM	8 µM	CC[C@H]1OC(=O)[C@H](C)[C@@H](O[C@H]2C[C@@](C)(OC)[C@](O)(CN3CCCCC3)[C@H](C)O2)[C@H](C)[C@@H](O[C@@H]2O[C@H](C)C[C@H](N(C)S(=O)(=O)Nc3ccc(C)cc3)[C@H]2O)[C@](C)(O)C[C@@H](C)CN[C@H](C)[C@@H](O)[C@]1(C)O [Example C-32]		
5 µM	7 µM	CC[C@H]1OC(=O)[C@H](C)[C@@H](O[C@H]2C[C@@](C)(OC)[C@](O)(CN3CCCCC3)[C@H](C)O2)[C@H](C)[C@@H](O[C@@H]2O[C@H](C)C[C@H](N(C)S(=O)(=O)c3ccc(F)cc3)[C@H]2O)[C@](C)(O)C[C@@H](C)CN[C@H](C)[C@@H](O)[C@]1(C)O [Example C-19]		
6 µM	5 µM	CC[C@H]1OC(=O)[C@H](C)[C@@H](O[C@H]2C[C@@](C)(OC)[C@](O)(CN3CCCCC3)[C@H](C)O2)[C@H](C)[C@@H](O[C@@H]2O[C@H](C)C[C@H](N(C)S(=O)(=O)c3ccc(C(F)(F)F)cc3)[C@H]2O)[C@](C)(O)C[C@@H](C)CN[C@H](C)[C@@H](O)[C@]1(C)O [Example C-18]		
8 µM	10 µM	CCCNC[C@]1(O)[C@H](C)O[C@@H](O[C@H]2[C@H](C)[C@@H](O[C@@H]3O[C@H](C)C[C@H](N(C)S(=O)(=O)c4ccc(Cl)cc4)[C@H]3O)[C@](C)(O)C[C@@H](C)CN(CCC)[C@H](C)[C@@H](O)[C@](C)(O)[C@@H](CC)OC(=O)[C@@H]2C)C[C@@]1(C)OC [Example B-151]		
		CCCNC[C@]1(O)[C@H](C)O[C@@H](O[C@H]2[C@H](C)[C@@H](O[C@@H]3O[C@H](C)C[C@H](N(C)S(=O)(=O)c4ccc(C#N)nc4)[C@H]3O)[C@](C)(O)C[C@@H](C)CN[C@H](C)[C@@H](O)[C@](C)(O)[C@@H](CC)OC(=O)[C@@H]2C)C[C@@]1(C)OC [Example B-17]	100 µM	
7 µM	15 µM	CCCNC[C@]1(O)[C@H](C)O[C@@H](O[C@H]2[C@H](C)[C@@H](O[C@@H]3O[C@H](C)C[C@H](N(C)S(=O)(=O)c4ccc(C)cc4)[C@H]3O)[C@](C)(O)C[C@@H](C)CN(CCC)[C@H](C)[C@@H](O)[C@](C)(O)[C@@H](CC)OC(=O)[C@@H]2C)C[C@@]1(C)OC [Example B-154]		
